# Source: patent US8709396B2, “Method and composition for attracting arthropods by volatizing an acid” (Premark FEG L.L.C., priority 2002, dated 2014)
# System: Aedes aegypti (AE) mosquitoes
# Experiment: olfactometer two-stimulus choice test, average percent of mosquitoes attracted
# Format: in vivo
# Conditions: for attraction of mosquitoes, result in words: olfactometer, AE mosquitoes, summary statements of the text
# Description: 100 Aedes aegypti (AE) mosquitoes were placed into an olfactometer unit. For each test, the mosquitoes were exposed to two sets of stimuli for a collection period of 3 minutes. The mosquitoes could choose between the stimuli or not respond.
# For the first test, ferric chloride hexahydrate was impregnated on diatomaceous earth and was activated with a moisture containing substance to form the first stimulus center. This material released water and trace amounts of hydrochloric acid, HCl. The second stimulus center in this test was a blank (no chemical stimulus).
# For the second test, dry carbon dioxide was fed at 5 ml/min from a standard gas cylinder as the first stimulus center. The second stimulus center in this test was a blank (no chemical stimulus).
# For the third test, ferric chloride hexahydrate was impregnated on diatomaceous earth and was activated with a moisture containing substance to form the first stimulus center. This material released water and trace amounts of hydrochloric acid, HCl. The second stimulus center was dry carbon dioxide fed at 5 ml/min from a standard gas cylinder.
# As with Example 1, 100 AE mosquitoes were placed into an olfactometer unit. For each test, the mosquitoes were exposed to two sets of stimuli for a collection period of 3 minutes. The mosquitoes could choose between the stimuli or not respond.
# For the first test, dry carbon dioxide was fed at 5 ml/min from a standard gas cylinder as the first stimulus center. The second stimulus center in this test was a blank (no chemical stimulus).
# For the second test, ferric chloride hexahydrate impregnated on diatomaceous earth and sodium bicarbonate powder were contained in a sachet. The sachet was activated by combining the two powders stimulating a chemical reaction that released carbon dioxide, water and trace amounts of hydrochloric acid, forming the first stimulus center. The reaction produces by-product water that stimulates hydrochloric acid production from the ferric chloride. The sachet was designed to release CO2 at a rate of 5 ml/min over the collection period. The second stimulus center in this test was a blank (no chemical stimulus).
# For the third test, a sachet containing ferric chloride hexahydrate impregnated on diatomaceous earth and sodium bicarbonate powder, similar to the sachet used in the second test, was activated with a moisture-containing substance to release carbon dioxide water and trace amounts of hydrochloric acid, forming the first stimulus center. The reaction produces by-product water that stimulates hydrochloric acid production from the ferric chloride. The second stimulus center was carbon dioxide fed at 5 ml/min from a standard gas cylinder.
# As with Examples 1 and 2, 100 AE mosquitoes were placed into an olfactometer unit. For each test, the mosquitoes were exposed to two sets of stimuli for a collection period of 3 minutes. The mosquitoes could choose between the stimuli or not respond.
# For the first test, ferric chloride hexahydrate impregnated on a diatomaceous earth was activated with a moisture containing substance to form the first stimulus center. This material released water and trace amounts of hydrochloric acid, HCl. The second stimulus center in this test was a blank (no chemical stimulus).
# The sachet was activated by combining the two powders stimulating a chemical reaction that released carbon dioxide, water and trace amounts of hydrochloric acid, forming the first stimulus center. The reaction produces by-product water that stimulates hydrochloric acid production from the ferric chloride. The sachet was designed to release carbon dioxide at a rate of 5 ml/min. The second stimulus center in this test was a blank.
# For the third test, a sachet identical to that used in the second test and containing ferric chloride hexahydrate impregnated on diatomaceous earth and sodium bicarbonate powder was activated, forming the first stimulus center.
compound,measurement,setting,value
"O=C=O [CO2 (Dry), carbon dioxide]",Stimulant 2 - Avg. % attracted,"100 AE mosquitoes, 3 min, first stimulus center Activated Ferric Chloride",12%
same,Stimulant 2 - Avg. % attracted,"100 AE mosquitoes, 3 min, first stimulus center CO2/HCl/H2O Sachet",2%
same,Stimulant 1 - Avg. % attracted,"100 AE mosquitoes, 3 min collection, second stimulus center blank (Examples 1-3)",21%
same,Stimulant 2 - Avg. % attracted,"Example 4: CO2 5 mL/min, 3 min, first stimulus center CO2 flowing over water surface",7%
same,Stimulant 1 - Avg. % attracted,"Example 4: dry CO2 5 mL/min through tube or cartridge, 100 AE mosquitoes, 3 min, second stimulus center blank",15%
same,"attraction of mosquitoes, result in words",listed as CO2 (dry),is an attractant for mosquitoes
same,"attraction of mosquitoes, result in words",listed as carbon dioxide,did not draw significant numbers
